These results are taken from US7838230B2 (priority 2004, dated 2010).

The target in test [1] is T1, topoisomerase IV (Escherichia coli, UniProt P0AFI2+P20083). Nature of the test: Topoisomerase IV relaxation, microplate assay. It counts as biochemical.
In test [2] the target is T1, topoisomerase IV. Nature of the test: Topoisomerase IV relaxation, gel electrophoresis assay. It is filed as biochemical.

The structures appear in SMILES notation.

T1 sequence (P20083 whole entry): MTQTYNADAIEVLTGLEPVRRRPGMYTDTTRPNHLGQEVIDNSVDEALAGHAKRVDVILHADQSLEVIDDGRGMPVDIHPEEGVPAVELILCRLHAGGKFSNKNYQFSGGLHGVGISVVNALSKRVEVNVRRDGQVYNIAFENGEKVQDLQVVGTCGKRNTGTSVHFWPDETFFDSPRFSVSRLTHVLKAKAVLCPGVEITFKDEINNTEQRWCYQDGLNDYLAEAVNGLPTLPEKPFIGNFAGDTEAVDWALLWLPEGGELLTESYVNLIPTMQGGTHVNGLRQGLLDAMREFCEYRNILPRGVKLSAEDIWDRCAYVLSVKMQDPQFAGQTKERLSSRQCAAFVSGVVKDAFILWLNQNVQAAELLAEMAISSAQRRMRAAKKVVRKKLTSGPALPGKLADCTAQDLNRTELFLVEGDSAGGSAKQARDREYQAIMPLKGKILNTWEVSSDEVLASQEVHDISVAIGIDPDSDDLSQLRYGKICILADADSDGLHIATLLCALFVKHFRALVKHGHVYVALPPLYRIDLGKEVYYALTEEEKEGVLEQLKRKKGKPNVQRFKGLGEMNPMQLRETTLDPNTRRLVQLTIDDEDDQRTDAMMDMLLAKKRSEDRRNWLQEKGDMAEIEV
T1 sequence (P0AFI2 whole entry): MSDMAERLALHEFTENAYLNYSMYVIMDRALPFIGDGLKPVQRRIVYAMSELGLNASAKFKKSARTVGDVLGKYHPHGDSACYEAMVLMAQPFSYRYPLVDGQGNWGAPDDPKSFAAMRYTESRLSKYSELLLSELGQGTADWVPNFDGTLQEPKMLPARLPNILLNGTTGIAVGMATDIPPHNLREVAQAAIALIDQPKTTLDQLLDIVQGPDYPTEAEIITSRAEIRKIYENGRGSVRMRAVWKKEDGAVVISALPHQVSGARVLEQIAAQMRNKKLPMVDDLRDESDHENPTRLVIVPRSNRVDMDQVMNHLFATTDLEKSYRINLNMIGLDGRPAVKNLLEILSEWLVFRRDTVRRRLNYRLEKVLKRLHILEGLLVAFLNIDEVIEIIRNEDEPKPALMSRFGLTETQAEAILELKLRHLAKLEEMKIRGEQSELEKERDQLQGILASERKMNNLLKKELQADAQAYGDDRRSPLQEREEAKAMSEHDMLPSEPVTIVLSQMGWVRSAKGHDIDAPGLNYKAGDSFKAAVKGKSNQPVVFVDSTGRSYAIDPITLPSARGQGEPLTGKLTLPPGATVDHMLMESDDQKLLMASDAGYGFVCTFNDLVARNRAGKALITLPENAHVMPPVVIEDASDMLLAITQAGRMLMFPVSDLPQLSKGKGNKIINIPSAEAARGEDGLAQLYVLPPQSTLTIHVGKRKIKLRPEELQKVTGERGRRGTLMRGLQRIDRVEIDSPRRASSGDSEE

What is called IC50 is the concentration that inhibits the measured activity by half. With `CCn1cc(C(=O)O)c(=O)c2ccc(C)nc21` [Naladixic acid], the IC50 against topoisomerase IV [1] was found to be 88.4 µM; on topoisomerase IV [2], 36.3 µM.

As to `CO[C@@H]1[C@@H](OC(=O)c2ccc(C)[nH]2)[C@@H](O)[C@H](Oc2ccc3c(O)c(NC(=O)c4ccc(O)c(CC=C(C)C)c4)c(=O)oc3c2Cl)OC1(C)C` [Chlorbiocin], the IC50 at topoisomerase IV [1] (supercoiled pNO1 substrate, plate assay, read-out: Topo IV Relaxation IC50 Plate assay) is 0.32 µM; on topoisomerase IV [2] (supercoiled pNO1 substrate, gel assay, read-out: Topo IV Relaxation IC50 Gel assay) it was 0.14 µM.
